Read-outs that look alike come from different tables or passages of the source.
Assays:
[1] = cited from earlier work; for Adreno-corticoid activity / Diuretic activity: U.S. Pat. No. 2,814,632
[2] = test system: granuloma / thymus; experiment: Ratio of the local anti-inflammatory activity to the thymolytic activity; format: in vivo, rat (Wistar); conditions: for ED50 anti-proliferative activity / ED50 thymolytic activity (sub-cutaneous route): thymolytic activity determined by sub-cutaneous route; for ED50 anti-proliferative activity / ED50 thymolytic activity (oral route): thymolytic activity determined by the oral route
Description: The DE50 were calculated by transferring the results on to semi-logarithmic paper.
(§1) For each animal, the weight of the thymus has been brought to 100 grams of body weight. The thymolytic activity of the products under study was then expressed as a percentage of regression of the thymus with respect to the animals of the reference group and the ED50 of each product tested was estimated by transferring the percentage inhibition obtained for each dose on semi-logarithmic paper.
The ratio is indicated in Tables VII, VIII and IX which follow: […]

[3] = test system: thymus; format: in vivo, rat (Wistar, young male)
Description: The thymolytic effects have been examined by means of a test, the principle of which is as follows:
The repeated administration of a gluco-corticoid having a systemic activity causes an involution of the defence system of the organism, of which two organs belong to the reticulo-endothelial system, the spleen and the thymus, this latter being the most sensitive to this action, especially with young animals. The thymic involution is estimated by weighing.
The various products were injected daily by the oral or the sub-cutaneous route for four days, to young male rats of Wistar-strain, the initial weight of which was between 45 and 55 grams, distributed at random by groups of ten.
The products under study were administered at a volume of 0.2 ml. per animal for both methods, in suspension in:
Carboxy-methyl-cellulose at 5 % for sub-cutaneous injection;
Gum arabic at 5 % for the oral route.
The animals of the reference groups received the same volume of the corresponding vehicle.
Ninety-six hours after the first administration, the animals were killed, the thymus glands being taken and weighed immediately.
as §1

[4] = test system: granuloma; experiment: Anti-proliferative (anti-granulomatous) activity, cotton pellet granuloma; format: in vivo, rat (Wistar, male); conditions: rat, cotton pellet impregnated with product, 6 days
Source text: The experimental local anti-inflammatory activity of the compounds presented was estimated in rats by their anti-proliferative (anti-granulomatous) action, and for certain of these, by their anti-arthritic activity and their antiexudative activity.
The anti-proliferative (anti-granulomatous) activity has been brought into evidence by means of a test, the principle of which is as follows.
The introduction of a foreign body into an organism produces a set of inflammatory reactions which results, in the chromic stage, in the formation of a defence granuloma around the foreign body. The proliferation of this granuloma is eliminated or attenuated by anti-inflammatory agents.
The technique employed is very similar to that described by Winter and Porter (J. Am. Pharm. Ass. 46/9. 515) 1957 with rats.
Homogeneous groups of 6 male adult rats of the Wistar Strain were used, distributed at random and having weights comprised between 180 and 200 grams.
The implants or pellets were prepared from rolls of dental cotton; the weight of the pellets was between 35 and 40 mg.
The products to be tested were dissolved in dimethylsulphoxide (DMSO) and the solutions obtained, deposited on the pellets at a volume of 0.2 ml per pellet. The DMSO was then evaporated under high vacuum at ambient temperature, the complete elimination of the solvent being checked by weighing the pellets. "Reference" pellets, soaked with the solvent alone, were treated in the same manner.
Immediately before their introduction, the pellets were soaked with an antibiotic solution (0.1 ml. of a solution of penicillin G and streptomycin containing 200,000 of penicillin G and 0.1 gram of streptomycin sulphate per cc.).
Each animal received two pellets in the sub-cutaneous dorsal tissue on each side of the spinal column, at the costo-lumbar angle, under light anaesthesia with ether. The day of the operation and for three days after, the animals received by sub-cutaneous injection, 0.1 ml. of the antibiotic solution in the caudal region.
Six days after the introduction, the animals were killed by inhalation of chloroform and the granulomae were extracted and weighed, (fresh weight), and then the initial weights of the cotton pellets were subtracted from the total weight.
Certain non-sulphured steroids causing a large increase in protein catabolism which can influence the formation of the granuloma independently of their anti-inflammatory action, the weights of the granulomae were expressed as a percentage of the body weight (technique proposed by G. Dipasquale and A. Meli: J. Pharm. Pharmacol. (1965), 17,367-382) and the anti-proliferative effect of the various compounds as a percentage inhibition with respect to the reference granulomae. The DE50 were calculated by transferring the results on to semi-logarithmic paper.

[5] = oral, total dose administered during four days per rat of about 50 g
[6] = sub-cutaneous, total dose administered during four days per rat of about 50 g

SMILES | ED50 anti-proliferative activity / ED50 thymolytic activity (sub-cutaneous route) [2] | ED50 anti-proliferative activity / ED50 thymolytic activity (oral route) [2] | ED50 thymolytic activity, sub-cutaneous route ([3]; rat, in vivo, 5760 min) | ED50 thymolytic activity, oral route ([3]; rat, in vivo, po, 5760 min) | ED50 anti-proliferative activity [4] | further results
CCC(=O)SCC(=O)[C@@]1(O)CC[C@H]2[C@@H]3CCC4=CC(=O)C=C[C@]4(C)[C@H]3[C@@H](O)C[C@@]21C [21-thio propionate of prednisolone] |  |  |  |  |  | Adreno-corticoid activity [1]: possessing an adreno-corticoid activity; Diuretic activity [1]: considerable diuretic activity
CC(=O)SCC(=O)[C@@]1(O)[C@H](C)C[C@H]2[C@@H]3CCC4=CC(=O)C=C[C@]4(C)[C@@]3(F)[C@@H](O)C[C@@]21C [21-thio-acetate of dexamethasone] |  |  |  |  |  | Anti-inflammatory action ([1]; French Pat. No. 1187 M): anti-inflammatory product with a local action and a systemic action
CC(=O)SCC(=O)[C@@]1(O)CC[C@H]2[C@@H]3CCC4=CC(=O)CC[C@]4(C)[C@H]3[C@@H](O)C[C@@]21C [21-thio-acetate of hydrocortisone] |  |  |  |  |  | Biological activity ([1]; J. Org. Chem. 26,1233, 1961): free of all interesting biological activity
CC(=O)SCC(=O)[C@@]1(O)CC[C@H]2[C@@H]3CCC4=CC(=O)C=C[C@]4(C)[C@H]3[C@@H](O)C[C@@]21C [21-thio-acetate of prednisolone] |  |  |  |  |  | Adreno-corticoid activity [1]: possessing an adreno-corticoid activity; Diuretic activity [1]: considerable diuretic activity
CC(=O)OCC(=O)[C@@]1(O)[C@H](C)C[C@H]2[C@@H]3CCC4=CC(=O)C=C[C@]4(C)[C@@]3(F)[C@@H](O)C[C@@]21C [Dexamethasone (acetate), Dexamethasone acetate, reference compound] | 40 | 40 | 0.009 mg | 0.01 mg | 0.4 mg/pellet | 
C[C@@H]1C[C@H]2[C@@H]3CCC4=CC(=O)C=C[C@]4(C)[C@@]3(F)[C@@H](O)C[C@]2(C)[C@@]1(O)C(=O)CO [Dexamethasone (base), Dexamethasone, reference compound] | 50 | 80 | 10.02 mg | 0.013 mg | 1 mg/pellet | 
C[C@]12CCC(=O)C=C1CC[C@@H]1[C@@H]2[C@@H](O)C[C@@]2(C)[C@H]1CC[C@]2(O)C(=O)CO [Hydrocortisone (base), Hydrocortisone, reference compound] | 5.5 | 2.5 | 1.8 mg | 4 mg | 10 mg/pellet | 
CC(C)(C)C(=O)SCC(=O)[C@@]1(O)CC[C@H]2[C@@H]3CCC4=CC(=O)C=C[C@]4(C)[C@H]3[C@@H](O)C[C@@]21C [JO 1007, Dihydroxy-11β, 17αThiol 21 Dioxo-3,20 Pregnadiene-1,4 -21 Pivalate] | 0.014 | 0.046 | 30.4 mg | 9.6 mg | 0,44 mg/pellet | 
C[C@@H]1C[C@H]2[C@@H]3CCC4=CC(=O)C=C[C@]4(C)[C@@]3(F)[C@@H](O)C[C@]2(C)[C@@]1(O)C(=O)CSC(=O)C(C)(C)C [JO 1008, Dihydroxy-11β, 17α thiol-21 dioxo-3,20 fluoro-9α methyl-16α pregnadiene-1,4-21-pivalate] | 1.25 |  | 0.8 mg |  | 1 mg/pellet | 
CCCCCCC(=O)SCC(=O)[C@@]1(O)CC[C@H]2[C@@H]3CCC4=CC(=O)C=C[C@]4(C)[C@H]3[C@@H](O)C[C@@]21C [JO 1009, Dihydroxy-11β, 17αthiol-21 dioxo-3,20 pregnadiene-1,4-21 heptanoate] | 0.0625 |  | 8 mg |  | 0.5 mg/pellet | 
CCCCCCC(=O)SCC(=O)[C@@]1(O)[C@H](C)C[C@H]2[C@@H]3CCC4=CC(=O)C=C[C@]4(C)[C@@]3(F)[C@@H](O)C[C@@]21C [JO 1010, Dihydroxy611β, 17α thiol-21 dioxo-3,20 fluoro-9α methyl-16α pregnadiene-1,4-21 heptanoate] | 1.25 |  | 0.4 mg |  | 0,5 mg/pellet | 
C[C@@H]1C[C@H]2[C@@H]3CCC4=CC(=O)C=C[C@]4(C)[C@@]3(F)[C@@H](O)C[C@]2(C)[C@@]1(O)C(=O)CSC(=O)c1ccc(F)cc1 [JO 1013, Dihydroxy-11β, 17α thiol-21 dioxo-3,20 fluoro-9α methyl-16α pregnadiene-1,4-21 p. fluoro benzoate] | 0.625 |  | 0.8 mg |  | 0.5 mg/pellet | 
C[C@]12C=CC(=O)C=C1CC[C@@H]1[C@@H]2[C@@H](O)C[C@@]2(C)[C@H]1CC[C@]2(O)C(=O)CSC(=O)c1ccc(F)cc1 [JO 1014, Thiol-21 dioxo-3,20 pregnadiene-1,4-21 p. fluorobenzoate] | 0.0125 | 0,012 | > 40 mg | 40 mg | 0.5 mg/pellet | 
C[C@]12CCC(=O)C=C1CC[C@@H]1[C@@H]2[C@@H](O)C[C@@]2(C)[C@H]1CC[C@]2(O)C(=O)CSC(=O)c1ccc(F)cc1 [JO 1026, Dihydroxy-11β, 17α thiol-21 dioxo-3,20 pregnene-4-21 p. fluoro-benzoate] | < 0.01 | < 0.01 | > 40 mg | > 40 mg | 0.4 mg/pellet | 
CC(=O)OCC(=O)[C@@]1(O)CC[C@H]2[C@@H]3CCC4=CC(=O)C=C[C@]4(C)[C@H]3[C@@H](O)C[C@@]21C [Prednisolone (acetate), reference compound] |  |  |  |  | 2 mg/pellet | ED50 thymolytic activity, oral route [3, 5]: 0.64 mg; ED50 thymolytic activity, sub-cutaneous route [3, 6]: 0.23 mg
C[C@]12C=CC(=O)C=C1CC[C@@H]1[C@@H]2[C@@H](O)C[C@@]2(C)[C@H]1CC[C@]2(O)C(=O)CO [Prednisolone (base), Prednisolone, reference compound] | 5 | 12.5 |  |  | 4 mg/pellet | ED50 thymolytic activity, oral route [3, 5]: 0.34 mg; ED50 thymolytic activity, sub-cutaneous route [3, 6]: 0.84 mg

From patent publication US4014909A, “Esters of 21-thiol steroids” (priority 1974, dated 1977)
